Literature values as cited in patent publication US20020038007A1, “Method of finding agonist and antagonist to human 11cb splice variant” (priority 1996, published 2002).

Columns and labels:
[1] = injection into lateral ventricles of rats
[2] = intracerebroventricular injection; Presse, F et al Neuroscience 1996

**Q.** For “H-Asp-Phe-Asp-Met-Leu-Arg-Cys-Met-Leu-Gly-Arg-Val-Tyr-Arg-Pro-Cys-Trp-Gln-Val-OH (H-DFDMLRCMLGRVYRPCWQV-OH; cysteine pairing not given here) [MCH]”, which food consumption [1] is on record?
**A.** increased food consumption

**Q.** What about the feeding [2] of the same substance?
**A.** inhibit feeding
